According to ChEMBL document CHEMBL1201862, “PubChem BioAssay data set” (2004):
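Step 1: Grow cells in 96-well plates. Step 2: Expose to compound for 48 hours at 5 concentrations. Step 3: Interpolate endpoints linearly; if unreached, use highest concentration. Here, GI50 denotes the concentration required for 50% inhibition of growth.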 Calls of active or inactive are those of the source. Rule as the data show it: active = GI50 up to about 1.1 µM and inactive = higher.

Columns and labels:
Test in all cases: NCI anticancer screen, dose series, 48 h
786-0 = tested on: 786-0
A498 = tested on: A498
A549 = tested on: A549
ACHN = tested on: ACHN
BT-549 = tested on: BT-549
CAKI-1 = tested on: CAKI-1
CCRF-CEM = tested on: CCRF-CEM
COLO 205 = tested on: COLO 205
DU-145 = tested on: DU-145
EKVX = tested on: EKVX
HCC 2998 = tested on: HCC 2998
HCT-116 = tested on: HCT-116
HCT-15 = tested on: HCT-15
HL-60 = tested on: HL-60
HOP-62 = tested on: HOP-62
HOP-92 = tested on: HOP-92
HT-29 = tested on: HT-29
Hs-578T = tested on: Hs-578T
IGROV-1 = tested on: IGROV-1
K562 = tested on: K562
KM12 = tested on: KM12
LOX IMVI = tested on: LOX IMVI
M14 = tested on: M14
MCF7 = tested on: MCF7
MDA-MB-231 = tested on: MDA-MB-231
MDA-MB-435 = tested on: MDA-MB-435
MDA-N = tested on: MDA-N
MOLT-4 = tested on: MOLT-4
Malme-3M = tested on: Malme-3M
NCI-H226 = tested on: NCI-H226
NCI-H23 = tested on: NCI-H23
NCI-H460 = tested on: NCI-H460
NCI-H522 = tested on: NCI-H522
NCI/ADR-RES = tested on: NCI/ADR-RES
OVCAR-3 = tested on: OVCAR-3
OVCAR-4 = tested on: OVCAR-4
OVCAR-5 = tested on: OVCAR-5
OVCAR-8 = tested on: OVCAR-8
PC-3 = tested on: PC-3
RPMI-8226 = tested on: RPMI-8226
RXF 393 = tested on: RXF 393
SF-268 = tested on: SF-268
SF-295 = tested on: SF-295
SF-539 = tested on: SF-539
SK-MEL-28 = tested on: SK-MEL-28
SK-MEL-2 = tested on: SK-MEL-2
SK-MEL-5 = tested on: SK-MEL-5
SK-OV-3 = tested on: SK-OV-3
SN12C = tested on: SN12C
SNB-19 = tested on: SNB-19
SNB-75 = tested on: SNB-75
SR = tested on: SR
SW-620 = tested on: SW-620
T47D = tested on: T47D
TK-10 = tested on: TK-10
U-251 = tested on: U-251
UACC-257 = tested on: UACC-257
UACC-62 = tested on: UACC-62
UO-31 = tested on: UO-31
DMS-114 = tested on: DMS-114
DMS-273 = tested on: DMS-273
KM-20L2 = tested on: KM-20L2
M19-MEL = tested on: M19-MEL
SNB-78 = tested on: SNB-78

C=C1C(=O)OC2C3OC(C)(CCC(O)C3COC(C)=O)CC(OC(=O)/C(=C/C)COC(C)=O)C12 (configuration not stated)
GI50 (786-0): 0.138 µM (active)
GI50 (A498): 1.58 µM (inactive)
GI50 (A549): 7.33 µM (inactive)
GI50 (ACHN): 0.0925 µM (active)
GI50 (BT-549): 0.18 µM (active)
GI50 (CAKI-1): 0.166 µM (active)
GI50 (CCRF-CEM): 0.0176 µM (active)
GI50 (COLO 205): 0.082 µM (active)
GI50 (DU-145): 0.778 µM (active)
GI50 (EKVX): 0.424 µM (active)
GI50 (HCC 2998): 1.3 µM (inactive)
GI50 (HCT-116): 0.0796 µM (active)
GI50 (HCT-15): 0.061 µM
GI50 (HL-60): 0.0248 µM (active)
GI50 (HOP-62): 3.08 µM (inactive)
GI50 (HOP-92): 0.159 µM (active)
GI50 (HT-29): 0.154 µM (active)
GI50 (Hs-578T): 0.634 µM (active)
GI50 (IGROV-1): 0.738 µM (active)
GI50 (K562): 0.0775 µM (active)
GI50 (KM12): 1.5 µM (inactive)
GI50 (LOX IMVI): 0.163 µM (active)
GI50 (M14): 0.469 µM (active)
GI50 (MCF7): 0.128 µM (active)
GI50 (MDA-MB-231): 0.53 µM (active)
GI50 (MDA-MB-435): 0.109 µM (active)
GI50 (MDA-N): 0.155 µM (active)
GI50 (MOLT-4): 0.0783 µM (active)
GI50 (Malme-3M): 0.0242 µM (active)
GI50 (NCI-H226): 2.16 µM (inactive)
GI50 (NCI-H23): 1.02 µM (active)
GI50 (NCI-H460): 0.752 µM (active)
GI50 (NCI-H522): 0.0317 µM (active)
GI50 (NCI/ADR-RES): 0.59 µM (active)
GI50 (OVCAR-3): 0.212 µM (active)
GI50 (OVCAR-4): 1.9 µM (inactive)
GI50 (OVCAR-5): 0.586 µM (active)
GI50 (OVCAR-8): 0.532 µM (active)
GI50 (PC-3): 1.48 µM (inactive)
GI50 (RPMI-8226): 0.0698 µM (active)
GI50 (RXF 393): 0.223 µM (active)
GI50 (SF-268): 0.982 µM (active)
GI50 (SF-295): 9.12 µM (inactive)
GI50 (SF-539): 1.58 µM (inactive)
GI50 (SK-MEL-28): 0.116 µM (active)
GI50 (SK-MEL-2): 1.13 µM (inactive)
GI50 (SK-MEL-5): 0.684 µM (active)
GI50 (SK-OV-3): 6.64 µM (inactive)
GI50 (SN12C): 0.738 µM (active)
GI50 (SNB-19): 5.32 µM (inactive)
GI50 (SNB-75): 4.66 µM (inactive)
GI50 (SR): 0.196 µM (active)
GI50 (SW-620): 0.0807 µM (active)
GI50 (T47D): 0.142 µM (active)
GI50 (TK-10): 0.165 µM (active)
GI50 (U-251): 1.22 µM (inactive)
GI50 (UACC-257): 0.586 µM (active)
GI50 (UACC-62): 0.458 µM (active)
GI50 (UO-31): 0.398 µM (active)

CC(=O)OC1CCC2OOC1O2 (configuration not stated)
GI50 (786-0): > 100 µM (inactive)
GI50 (A498): > 100 µM (inactive)
GI50 (A549): > 100 µM (inactive)
GI50 (ACHN): > 100 µM (inactive)
GI50 (CAKI-1): > 100 µM (inactive)
GI50 (CCRF-CEM): > 100 µM (inactive)
GI50 (COLO 205): > 100 µM (inactive)
GI50 (DMS-114): > 100 µM (inactive)
GI50 (DMS-273): > 100 µM (inactive)
GI50 (EKVX): > 100 µM (inactive)
GI50 (HCC 2998): > 100 µM (inactive)
GI50 (HCT-116): > 100 µM (inactive)
GI50 (HCT-15): > 100 µM
GI50 (HL-60): > 100 µM (inactive)
GI50 (HOP-62): > 100 µM (inactive)
GI50 (HT-29): > 100 µM (inactive)
GI50 (IGROV-1): > 100 µM (inactive)
GI50 (K562): > 100 µM (inactive)
GI50 (KM-20L2): > 100 µM (inactive)
GI50 (KM12): > 100 µM (inactive)
GI50 (LOX IMVI): > 100 µM (inactive)
GI50 (M14): > 100 µM (inactive)
GI50 (M19-MEL): > 100 µM (inactive)
GI50 (MOLT-4): > 100 µM (inactive)
GI50 (Malme-3M): > 100 µM (inactive)
GI50 (NCI-H226): > 100 µM (inactive)
GI50 (NCI-H23): > 100 µM (inactive)
GI50 (NCI-H460): > 100 µM (inactive)
GI50 (NCI-H522): > 100 µM (inactive)
GI50 (OVCAR-3): > 100 µM (inactive)
GI50 (OVCAR-4): > 100 µM (inactive)
GI50 (OVCAR-5): > 100 µM (inactive)
GI50 (OVCAR-8): > 100 µM (inactive)
GI50 (RPMI-8226): > 100 µM (inactive)
GI50 (RXF 393): > 100 µM (inactive)
GI50 (SF-268): > 100 µM (inactive)
GI50 (SF-295): > 100 µM (inactive)
GI50 (SF-539): > 100 µM (inactive)
GI50 (SK-MEL-28): > 100 µM (inactive)
GI50 (SK-MEL-2): > 100 µM (inactive)
GI50 (SK-MEL-5): > 100 µM (inactive)
GI50 (SK-OV-3): > 100 µM (inactive)
GI50 (SN12C): > 100 µM (inactive)
GI50 (SNB-19): > 100 µM (inactive)
GI50 (SNB-75): > 100 µM (inactive)
GI50 (SNB-78): > 100 µM (inactive)
GI50 (SR): > 100 µM (inactive)
GI50 (SW-620): > 100 µM (inactive)
GI50 (TK-10): > 100 µM (inactive)
GI50 (U-251): > 100 µM (inactive)
GI50 (UACC-257): > 100 µM (inactive)
GI50 (UACC-62): > 100 µM (inactive)
GI50 (UO-31): > 100 µM (inactive)
